{"source": "patent US20120277161A1", "about": "“INHIBITION OF MULTIPLE CELL ACTIVATION PATHWAYS” (INTER-K PTY LIMITED, priority 2009, published 2012)", "key": {"[1]": {"test_system": "HT29 human colon cancer cells", "experiment": "Cell proliferation (MTT) assay, HT29 cells", "format": "cell-based", "details": "MTT, 24 hour incubation period", "description": "6.1 Cell Proliferation (MTT) Assay Single cell suspensions of viable trypsinised cells were seeded into 96-well tissue culture plates at a density of 2×10^3 cells per well in a volume of 100 μl of a suitable culture media supplemented with heat inactivated foetal calf serum (FCS) (e.g., Dulbecco's Modified Eagles Medium (DMEM), with 10% v/v FCS, 1% L-glutamine, 2% (v/v) Hepes, and antibiotics). A set of triplicate wells was prepared for each concentration of the peptide dendrimer being tested. Additional sample wells containing untreated cells or media alone were set up in each treatment plate and processed in parallel as reference controls. A zero-time plate of untreated cells and media-alone wells was simultaneously prepared and an MTT assay carried out on this plate at the time of addition of the kinase inhibitor (i.e., polypeptide or dendrimer) to treatment plates. All plates were cultured for 24 hours before addition of the test dendrimer.\nTo prepare the MTT solution 100 mg of MTT (3-(4,5-dimethylthiazolyl-2)-2,5-diphenyltetrazolium bromide) (Cat #. M-128, Sigma, St Louis Mo.), is mixed with 20 ml of PBS at pH 7.4. The resulting solution is filter sterilized (0.2 μM syringe filter) and stored at 4° C. protected from light until use. MTT substrate is cleaved in growing cells to yield a water insoluble salt. After solubilisation of the salt crystals, a coloured product is produced the measurement of which allows quantitation of the proliferative activity of the cultured cells.\nAppropriate concentrations of the kinase inhibitor were prepared by dilution of freshly prepared sterile 1 mM stock solutions into cell culture media to give a final well volume of 200 μl containing 10% v/v FCS. The zero-plate was processed by addition of MTT at this time. Cell culture was continued for a further 24 or 48 hours before addition of 20 μl of MTT in PBS (5 mg/ml, 0.2 um filter sterilised). The MTT cell proliferation assay measures cell proliferation rate and, in instances where cell viability is compromised, the assay indicates a comparative reduction in cell viability. After a 3 hour incubation in the presence of MTT (5% CO2 in air at 37° C.), plates were centrifuged at 450 g for 5 minutes, supernatant was removed by gentle suction and precipitated tetrazolium salt resuspended into 150 μl DMSO:glycine (0.1M glycine, 0.1M NaCl pH 10.5) (6:1 v/v) solution. Plates were gently vortexed to complete solubilisation of crystalline material and absorbance was read at 550 nm using a microplate reader. Sample data were processed to determine the comparative growth of treated samples relative to untreated controls.\nHT29 cells were cultured for 48 hours in the presence of selected dendrimers and proliferation of the cells was assessed by MTT assay essentially as described in Example 6.1. The results were calculated as percentage proliferation of control cells (not treated with dendrimer)."}, "[2]": {"test_system": "ERK1/2 activity in skin fibroblast cells", "experiment": "Phospho-ERK1/2 upon FCS stimulation, skin fibroblast cells", "format": "cell-based", "details": "compared to HT29 cells, data not shown"}, "[3]": {"test_system": "ERK1/2 activation in HT29 cells", "experiment": "Phospho-ERK1/2 ELISA upon serum (FCS) stimulation, HT29 cells", "format": "cell-based, human", "description": "HT29 cells were harvested using 0.5% trypsin EDTA (Invitrogen) and 5000 cells in 200 μL media were plated into each well of a clear NUNC tissue culture treated 96 well plate (NUNC). Cells were seeded in DMEM media (Invitrogen) supplemented with 10% (v/v) heat inactivated foetal calf serum (FCS, Invitrogen), 1% (v/v) L-glutamine (Invitrogen) and 2% (v/v) 1M Hepes buffer solution (Invitrogen). Cells were then incubated overnight at 37° C.\nThe following day, the growth medium was replaced with 100 μL of DMEM supplemented with 1% (v/v) L-glutamine and 2% (v/v) 1M HEPES buffer solution (Invitrogen) (serum free medium, SFM) and plates incubated for a further 24 hours at 37° C.\nThe dendrimers were re-constituted in SFM and the desired concentration was added to the plate in 100 μL SFM to make the total volume of each well 200 μL. The control wells (minus peptide) had only SFM added. The assay plate was then incubated at 37° C. for 4 hours. In studies in which cells were subjected to stimulation by serum, 22 μL FCS (10% v/v final concentration) was added to wells for the final 10 minutes at 37° C. SFM only (22 μL) was added to control wells.\nPhospho-ERK levels were evaluated by ELISA utilising an Active Motif FACE ERK1/2 ELISA kit (Australian Biosearch, WA, Australia) as per the manufacturers instructions. Briefly, media was replaced and cells fixed with 4% formaldehyde in PBS, and after a one hour incubation with antibody blocking buffer (supplied), the primary phospho-ERK antibody was added and the plate incubated overnight at 4° C. Antibody dilution buffer only was added to control test wells containing no primary antibody. The following day, HRP-conjugated secondary antibody was added to all wells for one hour before plates were developed and the absorbance measured at 450 nm using a Labsystems Multiskan EX microplate reader (Labsystems, Thermo Labsystems, UK)."}}, "note": "Entries after “also recorded” stand apart in the source; their conditions may differ."}
{"molecule": "CC(C)C[C@H](NC(=O)[C@@H]1CCCN1C(=O)[C@H](CC(N)=O)NC(=O)[C@H](CCCCN)NC(=O)[C@H](C)NC(=O)[C@H](CCCCN)NC(=O)[C@H](CO)NC(=O)[C@@H](N)CCCNC(=N)N)C(=O)N[C@@H](Cc1ccc(O)cc1)C(=O)N[C@@H](CCCNC(=N)N)C(=O)NCCCC[C@H](NC(=O)[C@H](CCCNC(=N)N)NC(=O)[C@H](Cc1ccc(O)cc1)NC(=O)[C@H](CC(C)C)NC(=O)[C@@H]1CCCN1C(=O)[C@H](CC(N)=O)NC(=O)[C@H](CCCCN)NC(=O)[C@H](C)NC(=O)[C@H](CCCCN)NC(=O)[C@H](CO)NC(=O)[C@@H](N)CCCNC(=N)N)C(=O)NCCCC[C@H](NC(=O)[C@H](CCCCNC(=O)[C@H](CCCNC(=N)N)NC(=O)[C@H](Cc1ccc(O)cc1)NC(=O)[C@H](CC(C)C)NC(=O)[C@@H]1CCCN1C(=O)[C@H](CC(N)=O)NC(=O)[C@H](CCCCN)NC(=O)[C@H](C)NC(=O)[C@H](CCCCN)NC(=O)[C@H](CO)NC(=O)[C@@H](N)CCCNC(=N)N)NC(=O)[C@H](CCCNC(=N)N)NC(=O)[C@H](Cc1ccc(O)cc1)NC(=O)[C@H](CC(C)C)NC(=O)[C@@H]1CCCN1C(=O)[C@H](CC(N)=O)NC(=O)[C@H](CCCCN)NC(=O)[C@H](C)NC(=O)[C@H](CCCCN)NC(=O)[C@H](CO)NC(=O)[C@@H](N)CCCNC(=N)N)C(=O)NCCCC[C@H](NC(=O)[C@H](CCCCNC(=O)[C@H](CCCCNC(=O)[C@H](CCCNC(=N)N)NC(=O)[C@H](Cc1ccc(O)cc1)NC(=O)[C@H](CC(C)C)NC(=O)[C@@H]1CCCN1C(=O)[C@H](CC(N)=O)NC(=O)[C@H](CCCCN)NC(=O)[C@H](C)NC(=O)[C@H](CCCCN)NC(=O)[C@H](CO)NC(=O)[C@@H](N)CCCNC(=N)N)NC(=O)[C@H](CCCNC(=N)N)NC(=O)[C@H](Cc1ccc(O)cc1)NC(=O)[C@H](CC(C)C)NC(=O)[C@@H]1CCCN1C(=O)[C@H](CC(N)=O)NC(=O)[C@H](CCCCN)NC(=O)[C@H](C)NC(=O)[C@H](CCCCN)NC(=O)[C@H](CO)NC(=O)[C@@H](N)CCCNC(=N)N)NC(=O)[C@H](CCCCNC(=O)[C@H](CCCNC(=N)N)NC(=O)[C@H](Cc1ccc(O)cc1)NC(=O)[C@H](CC(C)C)NC(=O)[C@@H]1CCCN1C(=O)[C@H](CC(N)=O)NC(=O)[C@H](CCCCN)NC(=O)[C@H](C)NC(=O)[C@H](CCCCN)NC(=O)[C@H](CO)NC(=O)[C@@H](N)CCCNC(=N)N)NC(=O)[C@H](CCCNC(=N)N)NC(=O)[C@H](Cc1ccc(O)cc1)NC(=O)[C@H](CC(C)C)NC(=O)[C@@H]1CCCN1C(=O)[C@H](CC(N)=O)NC(=O)[C@H](CCCCN)NC(=O)[C@H](C)NC(=O)[C@H](CCCCN)NC(=O)[C@H](CO)NC(=O)[C@@H](N)CCCNC(=N)N)C(=O)NCCC(N)=O", "note": "[Dend 8-10(4)]", "values": [{"measurement": "inhibition of proliferation of HT29 colon cancer cells", "setting": "[1]", "value": "substantially more effective at inhibiting cell growth/proliferation"}, {"measurement": "inhibition of ERK1/2 activity upon FCS stimulation, skin fibroblast cells", "setting": "[2]", "value": "much less inhibition"}, {"measurement": "greater inhibition of activated phospho-ERK 1/2 than the closest test agent (TAT-G RSKAKNPLYR)", "setting": "[3]; 5 μM, 1 hour, FCS stimulated HT29 cells", "value": "at least 30%"}, {"measurement": "inhibition of activated phospho-ERK1/2", "setting": "[3]; 5 μM, 4 hours, HT29 cells, data not shown", "value": "approx. 95%"}, {"measurement": "ERK1/2 activation (phospho-ERK1/2 levels) upon serum (FCS) stimulation, HT29 cells", "setting": "[3]; exposure to dendrimer for 4 hours prior to FCS", "value": "abolished ERK1/2 activation in a dose-dependent manner; also recorded: significantly reduced"}]}
